Source: article PMC3033228 (Clinical colorectal cancer, 2010)
Like-named read-outs stand apart in the source and are kept apart here.

Tests used:
[1] = 5-Fluorouracil plasma pharmacokinetics; type: in vivo, human; details: for 5-Fluorouracil Cl: DL 3 (erlotinib 150 mg), individual values (n = 2)
CRC = details: cited from earlier work
[2] = population pharmacokinetic analysis; cited from earlier work
[3] = human, in vivo
clinical = details: human, in vivo; for Cmax: Erlotinib Cmax
patients = details: cited from earlier work
[4] = tested on: patients with advanced colorectal cancer; assay: Phase I toxicity assessment; details: with FOLFOX4 with or without bevacizumab, oral, advanced CRC

## O=c1[nH]cc(F)c(=O)[nH]1 [5-Fluorouracil]
[1]; column Combination
  5-Fluorouracil Cl: 313.2 L/h
[1]; column Single Agent
  5-Fluorouracil Cl: 217.4 L/h
[1]; P = .97
  5-Fluorouracil systemic clearance, effect of co-administration of erlotinib: not markedly affected

## COc1cc2ncnc(Nc3ccc(F)c(Cl)c3)c2cc1OCCCN1CCOCC1 [gefitinib]
CRC
  Response rates (RRs) of monotherapy trials: negligible

## C#Cc1cccc(Nc2ncnc3cc(OCCOC)c(OCCO)cc23)c1 [OSI-420]
[2]
  OSI-420 exposure as share of erlotinib exposure: approximately 10%
[3]; 50 mg
  OSI-420 Cmax: 60.8 ± 16.1 (3) ng/mL
  OSI-420 Tmax: 2.00 (1.08–2.00, 3) hour
[3]; 100 mg
  OSI-420 Cmax: 67.8 ± 49.1 (8) ng/mL
  OSI-420 Tmax: 3.00 (1.03–25.03, 8) hour
[3]; 150 mg
  OSI-420 Cmax: 193.2 ± 92.6 (3) ng/mL
  OSI-420 Tmax: 9.95 (2.07–24.08, 3) hour

## C#Cc1cccc(Nc2ncnc3cc(OCCOC)c(OCCOC)cc23)c1 [erlotinib]
clinical; 50 mg, Erlotinib Tmax
  Tmax: 1.08 h
clinical; 100 mg
  Cmax: 985 ± 576 ng/mL
clinical; 150 mg
  Cmax: 1960 ± 1160 ng/mL
patients
  Dose level at which grade 3 diarrhea occurred: 200 mg
patients; erlotinib 100 mg/day
  Patients experiencing diarrhea: 25%
patients; erlotinib 150 mg/day
  Patients experiencing diarrhea: 86%
CRC
  Response rates (RRs) of monotherapy trials: negligible
[4]
  Maximum tolerated dose (MTD) of erlotinib: 100 mg daily
